Experimental data published in paper PMC4858680, “A platinum-based hybrid drug design approach to circumvent acquired resistance to molecular targeted tyrosine kinase inhibitors” (Scientific Reports, 2016).
Read-outs that look alike come from different tables or passages of the source.

Columns and labels:
PYK2 = target: T1, PYK2 (Homo sapiens, UniProt Q14289); type: binding; conditions: for remaining binding at 10 µM: read-out: Percent control
T1 construct: purchased DiscoveRx KINOMEscan

ERBB3 = target: T2, ERBB3 (Homo sapiens, UniProt P21860); type: binding; conditions: for remaining binding at 10 µM: read-out: Percent control; for Percent control: ERBB3, 10 μM
T2 construct: purchased DiscoveRx KINOMEscan

BTK = target: T3, BTK (Homo sapiens, UniProt Q06187); type: binding; conditions: for remaining binding at 10 µM: read-out: Percent control
T3 construct: purchased DiscoveRx KINOMEscan

FLT3(ITD) = conditions: 10 μM
TEC = target: T4, TEC (Homo sapiens, UniProt P42680); type: binding; conditions: for remaining binding at 10 µM: read-out: Percent control
T4 construct: purchased DiscoveRx (KINOMEscan service)
T4 sequence (P42680 1-631): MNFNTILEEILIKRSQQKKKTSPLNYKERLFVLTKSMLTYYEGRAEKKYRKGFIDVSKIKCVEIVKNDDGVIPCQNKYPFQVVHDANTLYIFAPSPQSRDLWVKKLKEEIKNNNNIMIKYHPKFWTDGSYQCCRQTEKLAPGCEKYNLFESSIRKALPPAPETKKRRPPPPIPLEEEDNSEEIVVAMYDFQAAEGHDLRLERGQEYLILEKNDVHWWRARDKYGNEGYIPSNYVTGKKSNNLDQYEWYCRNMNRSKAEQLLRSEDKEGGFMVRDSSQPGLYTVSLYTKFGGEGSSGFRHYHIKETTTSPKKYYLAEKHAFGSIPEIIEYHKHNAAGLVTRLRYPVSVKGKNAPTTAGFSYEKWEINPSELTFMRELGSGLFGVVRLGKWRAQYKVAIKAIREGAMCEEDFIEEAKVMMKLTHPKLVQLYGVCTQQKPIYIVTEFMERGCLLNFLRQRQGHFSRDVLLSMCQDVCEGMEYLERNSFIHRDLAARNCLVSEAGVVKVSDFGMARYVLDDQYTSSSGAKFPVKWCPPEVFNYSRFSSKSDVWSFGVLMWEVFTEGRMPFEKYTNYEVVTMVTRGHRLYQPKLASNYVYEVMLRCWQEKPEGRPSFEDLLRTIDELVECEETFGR

INSR = target: T5, INSR (Homo sapiens, UniProt P06213); type: binding; conditions: for remaining binding at 10 µM: read-out: Percent control
T5 construct: purchased DiscoveRx KINOMEscan

TRKA = target: T6, TRKA (Homo sapiens, UniProt P04629); type: binding; conditions: for remaining binding at 10 µM: read-out: Percent control
T6 construct: purchased DiscoveRx (KINOMEscan service)

EPHB6 = target: T7, EPHB6 (Homo sapiens, UniProt O15197); conditions: 10 μM
T7 sequence (O15197 32-1021): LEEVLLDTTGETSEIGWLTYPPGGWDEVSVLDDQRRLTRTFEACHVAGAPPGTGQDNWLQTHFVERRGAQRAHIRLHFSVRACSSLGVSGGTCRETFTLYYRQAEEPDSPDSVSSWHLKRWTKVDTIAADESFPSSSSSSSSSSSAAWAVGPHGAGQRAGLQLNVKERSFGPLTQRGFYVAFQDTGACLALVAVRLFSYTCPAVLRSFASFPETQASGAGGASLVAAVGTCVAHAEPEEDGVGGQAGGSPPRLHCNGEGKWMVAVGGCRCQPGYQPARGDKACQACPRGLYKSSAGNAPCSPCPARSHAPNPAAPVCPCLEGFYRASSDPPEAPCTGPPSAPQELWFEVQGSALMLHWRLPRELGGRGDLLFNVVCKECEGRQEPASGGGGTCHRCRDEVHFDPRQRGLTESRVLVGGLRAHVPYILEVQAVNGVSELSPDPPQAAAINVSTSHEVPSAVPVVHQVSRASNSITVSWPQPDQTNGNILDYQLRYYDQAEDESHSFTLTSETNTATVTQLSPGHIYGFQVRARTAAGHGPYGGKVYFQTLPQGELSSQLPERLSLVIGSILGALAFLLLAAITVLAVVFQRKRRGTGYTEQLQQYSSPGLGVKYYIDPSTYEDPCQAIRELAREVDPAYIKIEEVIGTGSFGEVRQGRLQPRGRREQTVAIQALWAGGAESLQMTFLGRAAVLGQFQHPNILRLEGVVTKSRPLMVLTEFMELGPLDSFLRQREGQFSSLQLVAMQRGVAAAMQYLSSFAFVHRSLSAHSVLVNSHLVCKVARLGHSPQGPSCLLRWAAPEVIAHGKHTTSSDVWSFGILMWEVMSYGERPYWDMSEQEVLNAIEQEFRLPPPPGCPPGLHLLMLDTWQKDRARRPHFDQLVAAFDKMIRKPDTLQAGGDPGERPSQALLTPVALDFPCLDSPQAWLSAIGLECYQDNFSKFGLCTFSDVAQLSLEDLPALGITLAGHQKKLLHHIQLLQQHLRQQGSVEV

FLT4 = FLT4 (Homo sapiens, UniProt P35916); conditions: 10 μM
ZAP70 = target: T8, ZAP70 (Homo sapiens, UniProt P43403); conditions: 10 μM
T8 sequence (P43403 1-619): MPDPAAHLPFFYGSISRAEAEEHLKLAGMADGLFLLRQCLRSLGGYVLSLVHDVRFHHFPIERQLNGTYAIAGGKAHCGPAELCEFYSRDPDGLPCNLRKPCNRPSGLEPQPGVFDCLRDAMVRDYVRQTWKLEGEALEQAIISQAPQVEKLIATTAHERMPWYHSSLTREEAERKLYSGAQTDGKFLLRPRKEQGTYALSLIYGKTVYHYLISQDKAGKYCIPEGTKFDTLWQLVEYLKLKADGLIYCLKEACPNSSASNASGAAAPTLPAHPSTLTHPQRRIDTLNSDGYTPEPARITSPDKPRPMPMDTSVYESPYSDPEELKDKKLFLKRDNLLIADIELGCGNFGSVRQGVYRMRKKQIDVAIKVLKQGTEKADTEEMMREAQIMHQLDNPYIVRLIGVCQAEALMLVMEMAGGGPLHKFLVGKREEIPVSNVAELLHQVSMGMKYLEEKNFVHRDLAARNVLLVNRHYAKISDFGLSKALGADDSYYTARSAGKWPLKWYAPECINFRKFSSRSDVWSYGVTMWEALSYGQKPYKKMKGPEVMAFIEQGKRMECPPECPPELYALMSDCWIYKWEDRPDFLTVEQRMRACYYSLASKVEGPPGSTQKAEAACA

T5 sequence (P06213 28-1382): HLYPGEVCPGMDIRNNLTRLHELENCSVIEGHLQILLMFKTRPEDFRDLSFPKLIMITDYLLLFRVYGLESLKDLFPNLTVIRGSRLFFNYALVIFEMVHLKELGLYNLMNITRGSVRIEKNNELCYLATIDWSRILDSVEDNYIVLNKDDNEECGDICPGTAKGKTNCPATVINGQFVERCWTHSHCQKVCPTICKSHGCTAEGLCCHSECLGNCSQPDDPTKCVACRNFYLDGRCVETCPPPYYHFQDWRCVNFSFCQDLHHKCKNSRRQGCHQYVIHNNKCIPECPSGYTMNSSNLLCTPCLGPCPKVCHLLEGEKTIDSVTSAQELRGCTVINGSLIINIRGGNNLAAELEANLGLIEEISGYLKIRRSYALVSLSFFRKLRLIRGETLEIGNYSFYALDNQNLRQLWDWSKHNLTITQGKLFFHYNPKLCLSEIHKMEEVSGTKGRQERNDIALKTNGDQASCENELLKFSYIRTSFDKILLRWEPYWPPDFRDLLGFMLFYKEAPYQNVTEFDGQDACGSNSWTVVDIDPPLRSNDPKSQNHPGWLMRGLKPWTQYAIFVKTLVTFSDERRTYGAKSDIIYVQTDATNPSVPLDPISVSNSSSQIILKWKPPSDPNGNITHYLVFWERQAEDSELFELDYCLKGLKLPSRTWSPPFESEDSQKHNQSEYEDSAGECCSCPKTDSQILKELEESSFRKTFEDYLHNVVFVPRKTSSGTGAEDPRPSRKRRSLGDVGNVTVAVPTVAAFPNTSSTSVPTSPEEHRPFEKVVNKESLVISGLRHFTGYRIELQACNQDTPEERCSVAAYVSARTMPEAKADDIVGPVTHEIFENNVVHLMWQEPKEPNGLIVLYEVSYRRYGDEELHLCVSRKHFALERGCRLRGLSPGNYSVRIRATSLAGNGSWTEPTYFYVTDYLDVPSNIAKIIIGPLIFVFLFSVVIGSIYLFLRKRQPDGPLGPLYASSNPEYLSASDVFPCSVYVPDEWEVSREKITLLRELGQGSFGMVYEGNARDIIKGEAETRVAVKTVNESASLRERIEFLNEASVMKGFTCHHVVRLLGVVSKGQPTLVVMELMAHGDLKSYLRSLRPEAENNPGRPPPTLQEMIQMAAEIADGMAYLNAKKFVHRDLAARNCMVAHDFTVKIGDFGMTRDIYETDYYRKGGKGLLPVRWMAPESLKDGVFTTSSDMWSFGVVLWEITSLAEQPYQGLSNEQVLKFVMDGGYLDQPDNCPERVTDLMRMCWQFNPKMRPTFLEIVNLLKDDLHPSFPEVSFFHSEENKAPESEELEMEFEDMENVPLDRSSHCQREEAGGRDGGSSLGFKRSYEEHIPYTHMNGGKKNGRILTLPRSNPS
T1 sequence (Q14289 whole entry): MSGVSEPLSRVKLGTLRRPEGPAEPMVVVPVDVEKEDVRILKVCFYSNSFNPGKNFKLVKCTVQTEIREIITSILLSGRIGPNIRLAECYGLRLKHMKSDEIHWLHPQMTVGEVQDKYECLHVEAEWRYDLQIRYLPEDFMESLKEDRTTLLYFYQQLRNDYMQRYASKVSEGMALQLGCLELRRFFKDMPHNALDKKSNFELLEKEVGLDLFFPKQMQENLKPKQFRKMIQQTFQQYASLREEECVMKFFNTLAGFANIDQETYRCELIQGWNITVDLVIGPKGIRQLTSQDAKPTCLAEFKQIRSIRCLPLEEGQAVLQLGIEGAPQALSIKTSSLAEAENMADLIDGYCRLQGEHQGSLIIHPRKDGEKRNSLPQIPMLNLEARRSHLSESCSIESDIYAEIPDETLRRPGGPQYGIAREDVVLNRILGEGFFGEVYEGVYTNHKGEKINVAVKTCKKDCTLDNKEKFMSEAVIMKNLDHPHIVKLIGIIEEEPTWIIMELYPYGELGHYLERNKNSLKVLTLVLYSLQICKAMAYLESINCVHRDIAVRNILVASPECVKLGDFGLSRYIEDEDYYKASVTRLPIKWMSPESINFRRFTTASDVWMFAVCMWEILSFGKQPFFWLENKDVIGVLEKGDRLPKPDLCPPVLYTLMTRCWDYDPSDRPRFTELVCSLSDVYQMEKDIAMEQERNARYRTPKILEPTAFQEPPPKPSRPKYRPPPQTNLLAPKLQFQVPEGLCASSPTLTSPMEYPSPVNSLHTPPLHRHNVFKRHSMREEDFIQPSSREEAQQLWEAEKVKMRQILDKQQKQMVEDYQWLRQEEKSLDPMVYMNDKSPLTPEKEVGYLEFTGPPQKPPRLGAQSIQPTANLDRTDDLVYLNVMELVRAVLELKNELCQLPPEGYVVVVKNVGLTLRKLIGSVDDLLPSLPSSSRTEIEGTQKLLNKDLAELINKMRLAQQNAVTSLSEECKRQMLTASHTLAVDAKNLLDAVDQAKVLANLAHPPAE
T3 sequence (Q06187 whole entry): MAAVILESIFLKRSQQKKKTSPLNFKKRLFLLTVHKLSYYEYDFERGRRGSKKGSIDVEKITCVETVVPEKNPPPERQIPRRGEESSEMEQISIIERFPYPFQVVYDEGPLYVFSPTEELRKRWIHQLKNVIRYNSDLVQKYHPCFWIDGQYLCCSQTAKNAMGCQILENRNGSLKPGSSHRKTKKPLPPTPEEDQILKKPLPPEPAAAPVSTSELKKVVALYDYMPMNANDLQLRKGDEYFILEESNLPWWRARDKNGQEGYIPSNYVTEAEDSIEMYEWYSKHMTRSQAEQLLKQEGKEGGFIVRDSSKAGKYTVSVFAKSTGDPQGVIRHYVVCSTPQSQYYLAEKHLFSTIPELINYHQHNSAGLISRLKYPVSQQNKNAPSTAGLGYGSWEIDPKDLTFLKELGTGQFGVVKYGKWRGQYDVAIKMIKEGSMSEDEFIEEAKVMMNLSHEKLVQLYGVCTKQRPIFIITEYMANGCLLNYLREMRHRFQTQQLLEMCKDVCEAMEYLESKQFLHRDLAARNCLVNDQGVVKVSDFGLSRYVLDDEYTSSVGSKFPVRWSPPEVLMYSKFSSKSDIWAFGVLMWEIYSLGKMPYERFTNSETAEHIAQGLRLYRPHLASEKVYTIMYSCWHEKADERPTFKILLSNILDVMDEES
T2 sequence (P21860 20-1342): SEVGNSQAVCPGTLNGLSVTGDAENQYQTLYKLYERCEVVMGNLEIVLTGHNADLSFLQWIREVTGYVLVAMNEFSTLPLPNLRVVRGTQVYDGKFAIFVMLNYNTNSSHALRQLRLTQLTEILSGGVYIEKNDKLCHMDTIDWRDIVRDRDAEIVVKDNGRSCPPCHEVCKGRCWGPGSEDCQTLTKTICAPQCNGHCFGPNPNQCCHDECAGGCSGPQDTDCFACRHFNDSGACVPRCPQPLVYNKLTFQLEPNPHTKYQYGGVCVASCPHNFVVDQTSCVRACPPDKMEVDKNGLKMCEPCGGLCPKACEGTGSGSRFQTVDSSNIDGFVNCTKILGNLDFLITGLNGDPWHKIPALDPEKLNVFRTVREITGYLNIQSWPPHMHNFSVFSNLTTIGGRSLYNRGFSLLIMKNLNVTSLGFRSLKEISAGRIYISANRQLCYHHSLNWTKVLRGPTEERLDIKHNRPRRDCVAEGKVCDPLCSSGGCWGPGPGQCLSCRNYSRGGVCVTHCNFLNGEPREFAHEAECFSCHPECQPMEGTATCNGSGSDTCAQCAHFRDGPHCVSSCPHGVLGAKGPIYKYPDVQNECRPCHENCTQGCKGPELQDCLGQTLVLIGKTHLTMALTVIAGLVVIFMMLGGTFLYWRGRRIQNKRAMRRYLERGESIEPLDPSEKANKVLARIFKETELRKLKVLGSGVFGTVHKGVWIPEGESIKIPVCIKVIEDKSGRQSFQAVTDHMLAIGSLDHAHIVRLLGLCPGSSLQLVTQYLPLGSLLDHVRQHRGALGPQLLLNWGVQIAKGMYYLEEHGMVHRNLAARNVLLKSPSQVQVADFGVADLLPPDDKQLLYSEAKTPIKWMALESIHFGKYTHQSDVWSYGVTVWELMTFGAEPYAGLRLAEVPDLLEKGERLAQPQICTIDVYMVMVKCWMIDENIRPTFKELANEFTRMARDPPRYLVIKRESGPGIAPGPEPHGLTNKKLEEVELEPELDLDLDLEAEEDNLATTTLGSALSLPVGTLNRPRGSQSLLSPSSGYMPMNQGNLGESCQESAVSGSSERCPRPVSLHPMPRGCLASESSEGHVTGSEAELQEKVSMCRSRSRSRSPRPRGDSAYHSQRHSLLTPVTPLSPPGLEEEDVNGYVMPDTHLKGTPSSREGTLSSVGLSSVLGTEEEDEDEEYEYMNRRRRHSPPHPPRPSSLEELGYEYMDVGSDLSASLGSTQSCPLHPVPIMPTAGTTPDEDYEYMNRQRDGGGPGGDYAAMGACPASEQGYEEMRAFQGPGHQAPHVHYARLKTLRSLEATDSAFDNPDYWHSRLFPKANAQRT
T6 sequence (P04629 33-796): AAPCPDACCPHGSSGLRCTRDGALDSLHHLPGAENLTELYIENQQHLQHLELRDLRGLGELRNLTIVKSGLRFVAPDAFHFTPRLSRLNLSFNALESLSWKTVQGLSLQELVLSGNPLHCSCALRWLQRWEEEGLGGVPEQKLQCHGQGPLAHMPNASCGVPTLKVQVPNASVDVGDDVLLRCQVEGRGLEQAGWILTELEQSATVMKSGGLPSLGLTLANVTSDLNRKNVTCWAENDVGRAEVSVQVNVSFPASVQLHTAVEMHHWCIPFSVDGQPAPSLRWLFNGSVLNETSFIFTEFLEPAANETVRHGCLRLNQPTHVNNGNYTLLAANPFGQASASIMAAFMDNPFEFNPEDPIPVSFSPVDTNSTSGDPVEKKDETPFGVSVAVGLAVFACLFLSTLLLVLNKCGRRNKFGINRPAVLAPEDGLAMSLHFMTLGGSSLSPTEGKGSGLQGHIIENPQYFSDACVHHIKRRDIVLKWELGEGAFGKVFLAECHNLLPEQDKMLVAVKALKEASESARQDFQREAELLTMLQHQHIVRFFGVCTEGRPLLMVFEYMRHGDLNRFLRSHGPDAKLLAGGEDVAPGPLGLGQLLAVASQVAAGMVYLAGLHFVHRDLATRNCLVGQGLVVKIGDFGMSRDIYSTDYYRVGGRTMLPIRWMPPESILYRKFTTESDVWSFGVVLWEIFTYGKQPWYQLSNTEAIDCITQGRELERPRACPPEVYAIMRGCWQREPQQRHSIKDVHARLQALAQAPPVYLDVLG

Row | Compound | remaining binding at 10 µM (ERBB3) | Percent control (FLT3(ITD)) | Percent control (PYK2; PYK2, 10 μM) | Percent control (EPHB6) | Percent control (FLT4) | Percent control (ERBB3) | Percent control (BTK; BTK, 10 μM) | Percent control (ZAP70) | Percent control (TEC; TEC, 10 μM) | Percent control (INSR; INSR, 10 μM) | Percent control (TRKA; TRKA, 10 μM) | remaining binding at 10 µM (BTK; BTK, 10 μM) | other results
1 | C#Cc1cccc(Nc2ncnc3cc(OCCOC)c(OCCOC)cc23)c1 [Erlotinib] | 9.9% | 7.6% | – | – | – | – | – | – | – | – | – | – | remaining binding at 10 µM (PYK2): 100%; remaining binding at 10 µM (BTK): 100%; remaining binding at 10 µM (TEC): 100%; remaining binding at 10 µM (INSR): 100%; remaining binding at 10 µM (TRKA): 100%
2 | Cc1ccc(NC(=O)c2ccc(CN3CCN(C)CC3)cc2)cc1Nc1nccc(-c2cccnc2)[n+]1[Pt-2]1([Cl])[NH2+]C2CCCCC2[NH2+]1 (centres unmarked) [1b, oxaliplatin-imatinib] | – | 74% | 92% | 92% | 99% | 100% | 100% | 100% | 100% | 92% | 98% | – | –
3 | COc1cc2c(Nc3ccc(Br)cc3F)ncnc2cc1OCC1CCN(C)CC1 [Vandetanib, reference compound] | 1.6% | 15.3% | – | – | – | – | – | – | – | – | – | 14.5% | remaining binding at 10 µM (PYK2; PYK2, 10 μM): 100%; remaining binding at 10 µM (TEC; TEC, 10 μM): 100%; remaining binding at 10 µM (INSR; INSR, 10 μM): 100%; remaining binding at 10 µM (TRKA; TRKA, 10 μM): 100%
4 | COc1cc2c(Nc3ccc(Br)cc3F)[n+]([Pt-2]3([Cl])[NH2+]C4CCCCC4[NH2+]3)cnc2cc1OCC1CCN(C)CC1 (centres unmarked) [3b, oxaliplatin-vandetanib] | – | – | 80% | 2.5% | 14% | 4.1% | 37% | 99% | 100% | 72% | 92% | – | –
5 | C#Cc1cccc(Nc2c3cc(OCCOC)c(OCCOC)cc3nc[n+]2[Pt@SP2-2]([NH3+])([NH3+])[Cl])c1 [2a, cisplatin-erlotinib] | – | 79% | 90% | 76% | 90% | 100% | 87% | 89% | 72% | 85% | 94% | – | –
6 | Cc1ccc(NC(=O)c2ccc(CN3CCN(C)CC3)cc2)cc1Nc1nccc(-c2cccnc2)n1 [Imatinib, reference compound] | – | 38.7% | 100% | 100% | 100% | 100% | – | 100% | 100% | 100% | 100% | 100% | –
